Columns and labels:
Format in all cases: functional
Cavia porcellus [1] = species: Cavia porcellus; assay: Compound was evaluated for agonist activity in Guinea pig ileum (GPI) partial agonist (potency ratio is based on IC10 value for compound and morphine)
Cavia porcellus [2] = species: Cavia porcellus; assay: Compound was evaluated for irreversible antagonist activity in Guinea pig ileum (GPI) agonist (ethylketazocine) IC50 after antagonist treatment (20 nM) divided by the agonist control IC50
Cavia porcellus [3] = species: Cavia porcellus; assay: Compound was evaluated for irreversible antagonist activity in Guinea pig ileum (GPI)agonist (ethylketazocine) IC50 after antagonist treatment (200 nM) divided by the agonist control IC50
Mus musculus [4] = species: Mus musculus; assay: Compound was evaluated for agonist activity in Mouse vas deferens (MVD)
Cavia porcellus [5] = species: Cavia porcellus; assay: Compound was evaluated for irreversible antagonist activity in Guinea pig ileum (GPI) agonist (morphine) IC50 after antagonist treatment (20 nM) divided by the agonist control IC50
Cavia porcellus [6] = species: Cavia porcellus; assay: Compound was evaluated for irreversible antagonist activity in Guinea pig ileum (GPI) agonist (morphine) IC50 after antagonist treatment (200 nM) divided by the agonist control IC50 (Tissue was treated with 200 nM compound rather than 20 nM)
Mus musculus [7] = species: Mus musculus; assay: Compound was evaluated for irreversible antagonist activity in Mouse vas deference(MVD) agonist (morphine) IC50 after antagonist treatment (50 nM) divided by the agonist control IC50
Mus musculus [8] = species: Mus musculus; assay: Compound was evaluated for irreversible antagonist activity in Mouse vas deference(MVD) agonist (DADLE) IC50 after antagonist treatment (50 nM) divided by the agonist control IC50
Cavia porcellus [9] = species: Cavia porcellus; assay: Compound was evaluated for agonist activity in Guinea pig ileum (GPI)
Cavia porcellus [10] = species: Cavia porcellus; assay: Compound was evaluated for irreversible antagonist activity in Guinea pig ileum (GPI) agonist (morphine) IC50 after antagonist treatment (200 nM) divided by the agonist control IC50

Structure (SMILES)	Potency ratio (Cavia porcellus [1])	IC50 ratio (Cavia porcellus [2])	IC50 ratio (Cavia porcellus [3])	Potency ratio (Mus musculus [4])	IC50 ratio (Cavia porcellus [5])	IC50 ratio (Cavia porcellus [6])	IC50 ratio (Mus musculus [7])	IC50 ratio (Mus musculus [8])	Potency ratio (Cavia porcellus [9])	IC50 ratio (Cavia porcellus [10])
Oc1ccc2c3c1O[C@H]1[C@H](N=C=S)CCC4C(C2)N(CC2CC2)CCC341 (some centres undefined)	3.1	1.58	2.29	4.5	4.8	70	11.5	1.96	–	–
O=C(CI)N[C@@H]1CCC2C3Cc4ccc(O)c5c4C2(CCN3CC2CC2)[C@H]1O5 (some centres undefined)	–	1.03	–	25.3	3.05	–	15.6	2.4	6.27	–
COC(=O)/C=C/C(=O)N[C@@H]1CC[C@@]2(O)[C@H]3Cc4ccc(O)c5c4[C@@]2(CCN3CC2CC2)[C@H]1O5	–	1	–	4.4	6	–	3.9	1.8	5	–
CN(CCCl)[C@@H]1CCC2C3Cc4ccc(O)c5c4C2(CCN3CC2CC2)[C@H]1O5 (some centres undefined)	–	6.25	–	380	125	–	51	46.77	154	–
COC(=O)/C=C/C(=O)N[C@@H]1CCC2C3Cc4ccc(O)c5c4C2(CCN3CC2CC2)[C@H]1O5 (some centres undefined)	–	1.33	0.5	18	1.58	–	4.12	2.29	17.62	2.77

— ChEMBL document CHEMBL1123759, “Nonequilibrium opioid antagonist activity of 6,14-dideoxynaltrexone derivatives” (1987)
